System: p-388 (linfocitic leukemia)
Assay: biological activity on P-388 leukemia cultures
Assay type: cell-based

O=C1c2c(O)cc(O)cc2O[C@H](c2ccc(O)c(O)c2)[C@H]1O [taxifoline]
anticarcinogenic activity on P-388 cultures (leufocytic leukemia): has shown anticarcinogenic activity

Reference: US6444235B1, “Canelo products and methods of making and using same” (bioActiva microtechne, priority 1999, dated 2002)
